From BigSolDB 2.1

CC(CO)(CO)C(=O)O
solubility (mole fraction)
Conditions	288.15 K	293.15 K	298.15 K	303.15 K	308.15 K	313.15 K	318.15 K	323.15 K	328.15 K
in DMF	0.163	0.171	0.177	0.184	0.191	0.201	0.21	0.218	0.225
in acetone	0.00255	0.00292	0.00366	0.004	0.00477	0.00564	0.00645	0.00753	0.00853
in ethanol	0.0117	0.0135	0.0155	0.0186	0.0214	0.0254	0.0293	0.0341	0.0386
in ethyl acetate	0.00042	0.00048	0.00056	0.00072	0.00096	0.00131	0.00163	0.00202	0.00253
in isopropanol	0.00755	0.00901	0.0114	0.0131	0.0164	0.0185	0.0209	0.0252	0.0306
in methanol	0.0223	0.0254	0.0288	0.0334	0.038	0.0436	0.0498	0.0566	0.0635
in methyl acetate	0.00052	0.00072	0.00094	0.00121	0.00149	0.00186	0.00234	0.00301	0.0041
in n-butanol	0.00666	0.00759	0.00911	0.0108	0.0132	0.0155	0.0181	0.0214	0.0257
in n-butyl acetate	0.00033	0.00038	0.00046	0.00053	0.00063	0.00075	0.00087	0.00098	0.00113
in n-propanol	0.00677	0.00775	0.00939	0.0111	0.0136	0.0161	0.0189	0.0226	0.027
in sec-butanol	0.0068	0.00792	0.00935	0.0112	0.014	0.0165	0.0191	0.0232	0.0277
in water	0.0133	0.0152	0.0169	0.0199	0.0231	0.0265	0.0305	0.0349	0.0414
